The values below come from patent publication US20080242684A1, “METHODS OF ADMINISTRATION OF ADENOSINE A1 RECEPTOR ANTAGONISTS” (priority 2007, published 2008).

The structures appear in SMILES notation.

In series [1] the test system is subject with fluid overload and impaired renal function. Nature of the series: Example 5: IV KW-3902 concurrent with diuretic therapy in fluid overload and impaired renal function. The series is classed as in vivo, human. As to conditions: 20-40 mg KW-3902 IV over 3-5 hours, concurrent with other diuretic therapy. As to the method:
A subject with fluid overload, as manifested by peripheral edema, dyspnea, and/or other signs or symptoms presents themself to the physician's office or clinic. The subject has been on a therapy regimen that includes oral diuretics and, in addition, to needing a higher dose of diuretics to manage his/her fluid balance, the subject is now showing impaired renal function. […] The subject is administered a dose of about 20 mg to about 40 mg KW-3902 intravenously over about 3 to about 5 hours, preferably over the course of about 4 hours, concurrent with other diuretic therapy. The subject's fluid intake and output, urine volume, serum and urine creatinine levels, electrolytes and cardiac function are monitored.

Series [2] concerns Subjects presenting with New York Heart Association Class II-IV CHF and estimated creatinine clearance between 20 mL/min and 80 mL/min.
Procedure: The subjects are taking an oral loop diuretic. The subjects can also present with a one of the following: history of seizure, stroke within two years, brain tumor, brain surgery within two years, encephalitis within two years, history of penetrating head trauma, closed head injury with loss of consciousness over 30 minutes within two years, history of alcohol withdrawal seizure, advanced Alzheimer's disease, or advanced multiple sclerosis (“at risk” subjects). The subjects' medical history, physical examination, classification of CHF, vital signs, body weight, CHF signs and symptom scores, Holter monitor recording, chest X-ray, CBC chemistries, creatinine clearance, fluid intake, and urine output are determined on pre-treatment days −2 to −1, days 1 to 3 of the Treatment Period, day 4/early Termination and a follow up contact at day 30. […] On day 1, the composition comprising KW-3902 (or placebo) is administered as a monotherapy. 6 hours after administration of KW-3902, IV loop diuretic is given to all treatment groups as needed. […] Final laboratory data are collected on day 4 or early termination. Follow-up phone contact is conducted on day 30.
The test system of series [3] is subject with fluid overload. Nature of the series: Example 7: IV KW-3902 concurrent with diuretic therapy in fluid overload. The series is classed as in vivo, human. The conditions noted are these: 20-40 mg KW-3902 IV over 3-5 hours. As to the method: A subject with fluid overload, as manifested by peripheral edema, dyspnea, and/or other signs or symptoms presents to the physician's office or clinic. The subject has been on a therapy regimen that includes oral diuretics and needs a higher dose of diuretics to manage his/her fluid balance. To delay or prevent the onset of renal impairment and/or to delay the need to use higher dosages of standard diuretics, the subject is administered a dose of about 20 mg to about 40 mg, and preferably a dose of about 30 mg, KW-3902 IV, administered over the course of about 3 to about 5 hours, and preferably over the course of about 4 hours. The subject also receives concurrent with their diuretic therapy. The subject's fluid intake and output, urine volume, serum and urine creatinine levels, electrolytes and cardiac function are monitored.

Series [4] has as its system hospitalized subject treated with maximum amounts of IV diuretic and still fluid overloaded. Nature of the series: Example 4: IV KW-3902 with continued furosemide in a hospitalized subject refractory to IV diuretic. The series is classed as in vivo, human. The conditions noted are these: 20-40 mg KW-3902 IV over 3-5 hours. As to the method:
A hospitalized subject who has been treated with maximum amounts of IV diuretic and is still symptomatic, fluid overloaded, or whose urine output is less than fluid intake is evaluated for further treatment. A dose of a KW-3902 between about 20 mg and about 40 mg, and preferably about 30 mg injectable form is infused through the IV line over the course of about 3 hours to about 5 hours, and preferably over the course of about 4 hours. […] The subject's fluid intake and output, urine volume, serum and urine creatinine levels, electrolytes and cardiac function are monitored.

Series [5] concerns Subjects presenting with congestive heart failure who are refractory to high dose diuretic therapy. Nature of the series: Example 3: IV KW-3902 in subjects refractory to standard IV diuretic therapy. The series is classed as in vivo, human. As to conditions: 20-40 mg KW-3902 IV over 3-5 hours. As to the method:
Changes in urine output are measured hourly. The subjects' creatinine clearance rate is measured every 3 hours. […] A dose of between about 20 mg and about 40 mg, preferably about 30 mg of KW-3902 in injectable form is infused through the IV line over the course of about 3 to about 5 hours, and preferably over the course of 4 hours. The subject receives continued treatment with furosemide. The subject's fluid intake and output, urine volume, serum and urine creatinine levels, electrolytes and cardiac function are monitored.

In the case of `CCCn1c(=O)c2[nH]c(C34CC5CC(CC3C5)C4)nc2n(CCC)c1=O` [KW-3902, 8-(3-noradamantyl)-1,3-dipropylxanthine], in series [1], the creatinine clearance entry is “improved diuresis and creatinine clearance”; the diuresis result is reported as “improved diuresis”; the “seizures throughout the course of therapy” value is on record as “do no experience seizures”. Besides, the “kidney function as measured by serum creatinine levels compared to the baseline levels” value in series [2] (20-40 mg (preferably about 30 mg) KW-3902 IV over about 4 hours, days 1-3, effect greater than placebo) was “improvement in kidney function”. Further, the “seizures throughout the treatment period” value in series [2] (at risk subjects) is “do not experience seizures”. For the same molecule, the “diuresis, as measured by urine output” value in series [2] (combination of KW-3902 and non adenosine-modifying diuretics such as furosemide) is recorded as “synergistic beneficial effect on diuresis”. In series [3], the diuresis result is reported as “improved diuresis”, the renal function entry is “renal function is maintained” and the “seizure throughout the course of treatment” value is “do not experience a seizure”. For the same molecule, in series [4], the diuresis result is reported as “improved diuresis” and the seizures entry is listed as “do not experience seizures”. Further, the “seizures during the course of treatment” value in series [5] (continued furosemide) is listed as “do not experience seizures”. In series [5] (compared to placebo), the creatinine clearance result is given as “improvement in creatinine clearance” and the “hourly urine volume over the ensuing 9 hours” value is “increased hourly urine volume”.
